Laboratory results from patent publication US20020115611A1, “Methods for screening GABA-modulatory compounds for specified pharmacological activities” (priority 1999, published 2002).

Assays:
[1] = system: rats; test: bicuculline seizure threshold test; format: in vivo; details: rat; proconvulsant activity; NS = no statistically significant effect versus vehicle
Text: (§1) A statistically significant effect in the spatial water maze, step-down passive avoidance, spontaneous locomotor activity, Porsolt swim test, or the elevated plus maze models is defined as p<0.05 using a valid parametric statistical test. Likewise, no statistically significant effect is defined in these models as p>0.05 using a valid parametric statistical test. No statistically significant effect for either of the seizure threshold models is defined as a decrease of less than 25% in the seizure threshold in the presence of a seizure inducing drug or a result that is not significant at the p<0.05 level.
This test provides a measure of whether the test compound is proconvulsant by measuring whether the test compound produces any change in the dose of the seizure inducing drug, bicuculline, needed to elicit seizures in rats. […]
Adult male Sprague-Dawley rats (175-300 g) are weighed and placed in a rat restrainer. […] Patency of catheter placement is tested by backflow of venous blood and ready infusion of less than 2 ml of saline solution. […]
Test compound is infused 5 minutes prior to the start of bicuculline infusion. […] The time elapsed from the start of bicuculline infusion to first myoclonic jerk (first head/neck twitch), the initiation of full myoclonus (writhing), and final forelimb extension is all recorded using a digital stopwatch. […]

[2] = system: rats; test: step-down passive avoidance; format: in vivo; details: rat, IV; cognitive enhancement (Table X)
Text: as §1
In step-down passive avoidance a rat is placed on a platform located in the center of an electrified grid floor that is contained within a large (45 cm×45 cm×50 cm) white translucent Plexiglas® enclosure. The natural inclination of the rat is to step off the platform and investigate its surroundings. […] Each time the animal steps off the platform it receives a mild foot shock of 2 mAmps×6 sec. Following each shock the animal is removed from the box, placed in its cage for a one minute inter-trial interval, and then returned to the platform. The latency to step down on each trial, the number of trials taken to reach criterion during training and the retention latency are collected.
Testing is conducted approximately 24 hrs. after training. Drug-free animals are placed on the platform in the box in which they will have been trained and the latency to step down onto the grid floor is recorded for one trial as a measure of memory retention.

[3] = target: α3β3γ2 GABAA subtype receptor (Homo sapiens, UniProt P18507+P34903); test: cell-based; details: oocyte electrophysiology EC50 α3β3γ2, Xenopus laevis oocytes, human subunits, GABA at EC10
Text: (§2) The in vitro efficacy and EC50 value of the test compound may be determined by measuring the chloride flux at the surface of a cell expressing the α,β, and γ subunits of the GABAA receptor in response to GABA by the two electrode voltage-clamp technique. While a variety of cells are suitable for use herein, the preferred cells used in this technique are Xenopus laevis oocytes that have been injected with non-polyadenylated CRNA coding for human derived α, βand γ GABAA subunits. The preferred form of the γ subunit is the normally expressed long form although an alternatively spliced form may be used.
(§3) Assays are carried out as described previously in White and Gurley, 1995 and White, et al., 1995. Xenopus laevis oocytes are enzymatically isolated and injected with non-polyadenylated cRNA for human derived α, β and γ GABAA subunits, respectively. In more preferred embodiments cRNA for the α1β2γ2, α2β3γ2, α3β3γ2, and α5β3γ2 subunit combinations are injected. Only one of these subunit combinations is injected per cell. For each subunit combination, sufficient message is injected to result in current amplitudes of >10 nA when 1 μM GABA is applied. Electrophysiological recordings are carried out using the two electrode voltage-clamp technique at a membrane holding potential of −70 mV.
(§4) Compounds are evaluated against a GABA concentration that evokes <10% (EC10) of the maximal evocable GABA current. Each oocyte is exposed to increasing concentrations of compound in order to evaluate a concentration/effect relationship.
(§5) Specificity of a compound for the Ro15-1788 site is determined following completion of the concentration/effect curve. After washing the oocyte sufficiently to remove previously applied compound, the oocyte is exposed to GABA and 1 μM Ro15-1788, followed by exposure to GABA, 1 μM Ro15-1788, and compound. Percent change due to addition of compound is calculated as described above. Any percent change observed in the presence of Ro15-1788 is subtracted from the percent changes in current amplitude observed in the absence of 1 μM Ro15-1788. These net values are used for the calculation of average activity and EC50 values.
(§6) To evaluate average activity and EC50 values, the concentration/effect data are averaged across cells and fit to the logistic equation. Average values are reported as mean±standard error.

[4] = target: α2β3γ2 GABAA subtype receptor (Homo sapiens, UniProt P18507+P47869); test: cell-based; details: oocyte electrophysiology EC50 α2β3γ2, Xenopus laevis oocytes, human subunits, GABA at EC10
Text: as §2, §3, §4, §5, §6

[5] = target: α1β2γ2 GABAA subtype receptor (Homo sapiens, UniProt P14867+P18507); test: cell-based; details: human subunits, GABA at EC10
Text: as §2, §3, §4, §5, §6

[6] = target: α5β3γ2 GABAA subtype receptor (Homo sapiens, UniProt P18507+P31644); test: cell-based; details: human subunits, GABA at EC10
Text: as §2, §3, §4, §5, §6

[7] = target: GABAA receptors (Ro15-1788 / benzodiazepine site), rat cortex membranes; test: Ro15-1788 competition binding assay, rat cortex membranes; details: displacement of 3H Ro15-1788, rat cortex membranes
Method: Rat cortex membranes are prepared by homogenizing one or two previously frozen rat cortexes in 30 ml of 25 mM Tris Buffer, pH 7.4. The homogenate is centrifuged for 10 minutes at 500×g. The supernatant is then transferred to a clean centrifuge tube and the pellet discarded. The supernatant is spun for 20 minutes at 48,000×g. The supernatant from this spin is discarded and the pellet is resuspended in 30 ml of 25 mM Tris Buffer, pH 7.4 and centrifuged for an additional 10 minutes at 48,000×g. The supernatant from the final spin is discarded and the membrane pellet is resuspended in 100 mL Tris buffer per gram of cortex used.
The cortex membrane preparation is used to perform either percent inhibition or competition binding assays. In order to determine percent inhibition 300 μl of resuspended membranes are mixed with 200 μl ^3H labeled Ro15-1788 (final concentration 2.5 nM) and incubated for 1 hour on ice in the presence of 2 μl test compound in DMSO (final concentration 4 μM). Membranes are harvested onto untreated filtermats. The filtermats are dried and the ^3H Ro15-1788 signal is counted in a scintillation counter. Nonspecific binding is determined by displacement of ^3H Ro15-1788 with 10 μM Diazepam (RBI) or any other compound known to bind tightly at the benzodiazepine site.
Ki values are calculated according to the Cheng-Prussof equation.

[8] = Xenopus laevis oocytes, negative = inverse agonism

Chain of α1β2γ2 GABAA subtype receptor (P14867 28-456): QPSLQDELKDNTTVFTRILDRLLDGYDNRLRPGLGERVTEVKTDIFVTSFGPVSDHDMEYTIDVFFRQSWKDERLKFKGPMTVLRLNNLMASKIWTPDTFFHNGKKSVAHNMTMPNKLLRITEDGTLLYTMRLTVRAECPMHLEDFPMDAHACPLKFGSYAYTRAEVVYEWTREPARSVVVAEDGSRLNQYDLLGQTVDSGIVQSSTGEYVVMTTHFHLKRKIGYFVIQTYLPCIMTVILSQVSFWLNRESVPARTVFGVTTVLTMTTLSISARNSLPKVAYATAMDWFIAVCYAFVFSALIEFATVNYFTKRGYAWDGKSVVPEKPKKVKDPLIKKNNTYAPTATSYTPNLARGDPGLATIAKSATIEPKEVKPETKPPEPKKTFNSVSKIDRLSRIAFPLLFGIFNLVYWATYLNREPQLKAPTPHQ
Chain of α1β2γ2 GABAA subtype receptor (P47870 25-512 partner limits assumed): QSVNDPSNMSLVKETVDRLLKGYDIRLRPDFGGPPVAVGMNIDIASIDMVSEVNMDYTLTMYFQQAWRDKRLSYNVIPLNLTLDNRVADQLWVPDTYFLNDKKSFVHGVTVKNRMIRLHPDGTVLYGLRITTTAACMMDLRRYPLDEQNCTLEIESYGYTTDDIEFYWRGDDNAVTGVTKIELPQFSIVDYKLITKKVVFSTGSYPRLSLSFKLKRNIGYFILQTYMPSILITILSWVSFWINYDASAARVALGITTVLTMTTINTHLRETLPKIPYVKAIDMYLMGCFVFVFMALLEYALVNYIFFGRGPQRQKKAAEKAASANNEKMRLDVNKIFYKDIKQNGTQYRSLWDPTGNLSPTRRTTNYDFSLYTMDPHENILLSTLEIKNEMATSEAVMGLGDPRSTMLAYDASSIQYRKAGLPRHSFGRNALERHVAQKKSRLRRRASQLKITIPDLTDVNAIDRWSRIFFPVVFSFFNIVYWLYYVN
Chain of α1β2γ2 GABAA subtype receptor (P18507 40-475): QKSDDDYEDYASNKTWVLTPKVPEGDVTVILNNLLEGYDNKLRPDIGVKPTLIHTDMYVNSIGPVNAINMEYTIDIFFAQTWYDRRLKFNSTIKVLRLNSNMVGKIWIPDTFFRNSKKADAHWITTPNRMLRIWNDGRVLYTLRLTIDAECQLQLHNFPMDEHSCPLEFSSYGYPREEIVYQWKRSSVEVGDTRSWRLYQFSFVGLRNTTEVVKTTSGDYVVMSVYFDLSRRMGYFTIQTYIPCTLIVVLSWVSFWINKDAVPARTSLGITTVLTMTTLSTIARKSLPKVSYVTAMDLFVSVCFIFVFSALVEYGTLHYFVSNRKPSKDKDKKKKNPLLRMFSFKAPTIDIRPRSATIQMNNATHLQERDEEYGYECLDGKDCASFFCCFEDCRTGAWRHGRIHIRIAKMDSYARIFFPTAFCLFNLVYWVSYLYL
Chain of α5β3γ2 GABAA subtype receptor (P31644 32-462): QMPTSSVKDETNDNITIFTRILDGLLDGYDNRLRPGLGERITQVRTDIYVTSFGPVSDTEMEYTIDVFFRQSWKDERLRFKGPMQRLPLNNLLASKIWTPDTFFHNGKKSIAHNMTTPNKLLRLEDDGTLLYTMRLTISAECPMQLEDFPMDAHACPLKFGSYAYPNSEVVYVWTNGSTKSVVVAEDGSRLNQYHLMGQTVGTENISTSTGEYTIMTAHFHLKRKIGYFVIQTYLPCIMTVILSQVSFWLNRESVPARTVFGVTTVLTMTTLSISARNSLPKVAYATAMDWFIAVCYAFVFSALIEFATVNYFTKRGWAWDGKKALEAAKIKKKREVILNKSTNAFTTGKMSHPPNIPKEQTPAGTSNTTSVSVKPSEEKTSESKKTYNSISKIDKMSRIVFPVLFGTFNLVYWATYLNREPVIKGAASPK
Chain of α5β3γ2 GABAA subtype receptor (P28472 26-473 partner): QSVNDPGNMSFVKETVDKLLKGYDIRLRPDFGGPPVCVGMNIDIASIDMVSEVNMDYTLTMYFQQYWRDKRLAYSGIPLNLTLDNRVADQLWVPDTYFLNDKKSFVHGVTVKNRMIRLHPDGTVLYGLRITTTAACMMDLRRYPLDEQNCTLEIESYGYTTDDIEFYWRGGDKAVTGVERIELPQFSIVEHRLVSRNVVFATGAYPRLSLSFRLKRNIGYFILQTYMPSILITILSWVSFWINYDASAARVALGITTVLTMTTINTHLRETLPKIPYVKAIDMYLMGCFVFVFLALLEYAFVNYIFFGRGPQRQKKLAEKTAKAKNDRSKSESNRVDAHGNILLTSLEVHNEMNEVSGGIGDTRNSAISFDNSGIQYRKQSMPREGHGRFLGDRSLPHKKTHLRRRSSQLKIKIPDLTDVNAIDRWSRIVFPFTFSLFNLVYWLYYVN
Chain of α5β3γ2 GABAA subtype receptor (P18507 40-475): as the sequence (P18507 40-475) above
Chain of α3β3γ2 GABAA subtype receptor (P34903 29-492): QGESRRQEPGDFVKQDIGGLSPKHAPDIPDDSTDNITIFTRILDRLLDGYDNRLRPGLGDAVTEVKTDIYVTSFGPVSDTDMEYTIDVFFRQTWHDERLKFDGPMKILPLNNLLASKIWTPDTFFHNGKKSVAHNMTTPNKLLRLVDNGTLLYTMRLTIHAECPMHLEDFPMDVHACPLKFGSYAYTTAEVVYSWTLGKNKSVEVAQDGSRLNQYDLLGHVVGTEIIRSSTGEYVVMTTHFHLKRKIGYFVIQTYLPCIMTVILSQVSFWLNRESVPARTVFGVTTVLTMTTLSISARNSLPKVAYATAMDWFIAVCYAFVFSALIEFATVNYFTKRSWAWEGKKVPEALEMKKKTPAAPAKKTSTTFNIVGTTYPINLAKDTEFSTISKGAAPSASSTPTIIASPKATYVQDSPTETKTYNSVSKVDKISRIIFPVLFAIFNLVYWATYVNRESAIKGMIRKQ
Chain of α3β3γ2 GABAA subtype receptor (P28472 26-473 partner): as the sequence (P28472 26-473 partner) above
Chain of α3β3γ2 GABAA subtype receptor (P18507 40-475): as the sequence (P18507 40-475) above
Chain of α2β3γ2 GABAA subtype receptor (P47869 29-451): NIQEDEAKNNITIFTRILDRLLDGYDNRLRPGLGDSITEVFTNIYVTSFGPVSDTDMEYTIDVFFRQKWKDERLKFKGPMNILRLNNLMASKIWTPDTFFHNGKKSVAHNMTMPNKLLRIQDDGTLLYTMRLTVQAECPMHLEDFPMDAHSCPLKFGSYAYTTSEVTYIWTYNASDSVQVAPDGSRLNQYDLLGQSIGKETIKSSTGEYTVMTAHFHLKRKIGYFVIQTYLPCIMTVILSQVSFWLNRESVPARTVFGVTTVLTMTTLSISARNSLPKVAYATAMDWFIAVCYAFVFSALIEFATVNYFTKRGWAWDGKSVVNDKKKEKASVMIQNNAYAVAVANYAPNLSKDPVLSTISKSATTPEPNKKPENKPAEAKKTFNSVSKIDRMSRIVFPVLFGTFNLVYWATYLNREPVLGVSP
Chain of α2β3γ2 GABAA subtype receptor (P28472 26-473 partner): as the sequence (P28472 26-473 partner) above
Chain of α2β3γ2 GABAA subtype receptor (P18507 40-475): as the sequence (P18507 40-475) above

O=C1C2C=Nc3ccccc3C2=NN1c1ccccc1 (stereo not drawn) [CGS 8216, reference compound]
bicuculline seizure threshold, mean percent decrease in seizure threshold over the dose range studied [1]: 50% | cognitive model: step-down passive avoidance, minimal efficacious dose [2]: 0.06 mg/kg | EC50 [3]: 2 nM | EC50 [4]: 2 nM | oocyte electrophysiology maximum potentiation α1β2γ2 [5, 8]: −26% | EC50 ([5]; oocyte electrophysiology EC50 α1β2γ2, Xenopus laevis oocytes): 0.7 nM | oocyte electrophysiology maximum potentiation α5β3γ2 [6, 8]: −39% | EC50 ([6]; oocyte electrophysiology EC50 α5β3γ2, Xenopus laevis oocytes): 1 nM | Ki [7]: 0.2 nM
